Assay results: article PMC7442216 (Journal of medicinal chemistry, 2019)

Test system: HIV-1 NL4-3 NanoLuc-sec infection of MT4 cells
Experiment: MOA comparison: antiviral activity in the presence or absence of enzastaurin
Assay type: cell-based
Details: for HIV-1 inhibitory activity in the presence of enzastaurin: enzastaurin 1 μM, 1 at 0.6 nM, 13e at 2 nM

Compound | HIV-1 inhibitory activity in the presence of enzastaurin | antiviral potency relative to 1 (in this assay) | antagonism of GM's HIV-1 inhibitory activity (enzastaurin at 1 μM, GM at 0.6 nM)
C=C(C)[C@]12C[C@@H](COC(=O)c3ccccc3)[C@@]34OC5(O[C@@H]1[C@@H]3[C@@H]1O[C@]1(CO)[C@@H](O)[C@@]1(O)[C@H]4[C@H]([C@H](C)[C@@H]1OC(=O)c1ccncc1)[C@H](C)CCCCCC[C@H]5O)O2 [Compound 13e, 3-O-(4-Pyridinylcarbonyl) Stelleramacrin] | able to abrogate | approximately threefold weaker | 
Cn1cc(C2=C(c3cn(C4CCN(Cc5ccccn5)CC4)c4ccccc34)C(=O)NC2=O)c2ccccc21 [enzastaurin, reference compound] |  |  | effectively antagonized
C=C(C)[C@]12C[C@@H](COC(=O)c3ccccc3)[C@@]34OC5(O[C@@H]1[C@@H]3[C@@H]1O[C@]1(CO)[C@@H](O)[C@@]1(O)[C@H]4[C@H]([C@H](C)[C@@H]1OC(=O)c1ccccc1)[C@H](C)CCCCCC[C@H]5O)O2 [Compound 1, gnidimacrin] | largely abrogated |  | 
